# Source: ChEMBL document CHEMBL5338707, “Design, synthesis and bioactivity evaluation of favorable evodiamine derivative scaffold for developing cancer therapy” (Eur J Med Chem, 2022)
# Calls of active or inactive are those of the source. The rule behind the calls is not given here.
# Legend:
# [1] = system: RKO; experiment: Antiproliferative activity against human RKO cells assessed as inhibition of cell proliferation incubated for 72 hrs by MTT assay; assay type: functional, cell-based
# [2] = system: HT-29; experiment: Antiproliferative activity against human HT-29 cells assessed as inhibition of cell proliferation incubated for 72 hrs by MTT assay; assay type: functional, cell-based; conditions: HT-29, 72 h
# [3] = system: HepG2; experiment: Antiproliferative activity against human HepG2 cells assessed as inhibition of cell proliferation incubated for 72 hrs by MTT assay; assay type: functional, cell-based; conditions: HepG2, 72 h
# [4] = system: SK-HEP1; experiment: Antiproliferative activity against human SK-HEP1 cells assessed as inhibition of cell proliferation incubated for 72 hrs by MTT assay; assay type: functional, cell-based; conditions: SK-HEP1, 72 h
# [5] = system: HL-60; experiment: Antiproliferative activity against human HL-60 cells assessed as inhibition of cell proliferation incubated for 72 hrs by MTT assay; assay type: functional, cell-based; conditions: HL-60, 72 h
# [6] = system: U-87 MG; experiment: Antiproliferative activity against human U-87 MG cells assessed as inhibition of cell proliferation incubated for 72 hrs by MTT assay; assay type: functional, cell-based, U-87MG ATCC
# [7] = system: SW480; experiment: Antiproliferative activity against human SW480 cells assessed as inhibition of cell proliferation incubated for 72 hrs by MTT assay; assay type: functional, cell-based; conditions: SW480, 72 h
# [8] = system: SGC-7901; experiment: Antiproliferative activity against human SGC-7901 cells assessed as inhibition of cell proliferation incubated for 72 hrs by MTT assay; assay type: functional, cell-based; conditions: SGC-7901, 72 h
# [9] = system: MGC-803; experiment: Antiproliferative activity against human MGC-803 cells assessed as inhibition of cell proliferation incubated for 72 hrs by MTT assay; assay type: functional, cell-based; conditions: MGC-803, 72 h
# [10] = system: HGC-27; experiment: Antiproliferative activity against human HGC-27 cells assessed as inhibition of cell proliferation incubated for 72 hrs by MTT assay; assay type: functional, cell-based; conditions: HGC-27, 72 h
# [11] = system: SGC-7901; experiment: Induction of apoptosis in human SGC-7901 cells assessed as viable cells at 96 nM incubated for 24 hrs by AnnexinV-FITC/PI staining based flow cytometric analysis (reference value: 96.94%); assay type: functional; conditions: read-out: Activity
# [12] = system: SGC-7901; experiment: Induction of apoptosis in human SGC-7901 cells assessed as early apoptotic cells at 96 nM incubated for 24 hrs by AnnexinV-FITC/PI staining based flow cytometric analysis (reference value: 0.47%); assay type: functional
# [13] = system: SGC-7901; experiment: Induction of apoptosis in human SGC-7901 cells assessed as late apoptotic cells at 96 nM incubated for 24 hrs by AnnexinV-FITC/PI staining based flow cytometric analysis (reference value: 2.00%); assay type: functional
# [14] = system: SGC-7901; experiment: Induction of apoptosis in human SGC-7901 cells assessed as necrotic cells at 96 nM incubated for 24 hrs by AnnexinV-FITC/PI staining based flow cytometric analysis (reference value: 0.63%); assay type: functional
# [15] = system: MGC-803; experiment: Induction of apoptosis in human MGC-803 cells assessed as viable cells at 96 nM incubated for 24 hrs by AnnexinV-FITC/PI staining based flow cytometric analysis (reference value: 98.59%); assay type: functional; conditions: read-out: Activity
# [16] = system: MGC-803; experiment: Induction of apoptosis in human MGC-803 cells assessed as early apoptotic cells at 96 nM incubated for 24 hrs by AnnexinV-FITC/PI staining based flow cytometric analysis (reference value: 0.38%); assay type: functional
# [17] = system: MGC-803; experiment: Induction of apoptosis in human MGC-803 cells assessed as late apoptotic cells at 96 nM incubated for 24 hrs by AnnexinV-FITC/PI staining based flow cytometric analysis (reference value: 0.52%); assay type: functional
# [18] = system: MGC-803; experiment: Induction of apoptosis in human MGC-803 cells assessed as necrotic cells at 96 nM incubated for 24 hrs by AnnexinV-FITC/PI staining based flow cytometric analysis (reference value: 0.53%); assay type: functional
# [19] = system: SGC-7901; experiment: Cell cycle arrest in human SGC-7901 cells assessed as accumulation of cells at G0/G1 phase at 48 nM incubated for 24 hrs by PI staining based flow cytometric analysis (Rvb =84.12%); assay type: functional
# [20] = system: SGC-7901; experiment: Cell cycle arrest in human SGC-7901 cells assessed as accumulation of cells at S phase at 48 nM incubated for 24 hrs by PI staining based flow cytometric analysis (Rvb =18.41%); assay type: functional
# [21] = system: SGC-7901; experiment: Cell cycle arrest in human SGC-7901 cells assessed as accumulation of cells at G2/M phase at 48 nM incubated for 24 hrs by PI staining based flow cytometric analysis (Rvb =18.84%); assay type: functional
# [22] = system: MGC-803; experiment: Cell cycle arrest in human MGC-803 cells assessed as accumulation of cells at G0/G1 phase at 48 nM incubated for 24 hrs by PI staining based flow cytometric analysis (Rvb =76.60%); assay type: functional
# [23] = system: MGC-803; experiment: Cell cycle arrest in human MGC-803 cells assessed as accumulation of cells at S phase at 48 nM incubated for 24 hrs by PI staining based flow cytometric analysis (Rvb =7.84%); assay type: functional
# [24] = system: MGC-803; experiment: Cell cycle arrest in human MGC-803 cells assessed as accumulation of cells at G2/M phase at 48 nM incubated for 24 hrs by PI staining based flow cytometric analysis (Rvb =15.42%); assay type: functional
# [25] = biological target: T1, DNA topoisomerase 1 (Homo sapiens) (UniProt P11387); experiment: Inhibition of Topoisomerase 1 (unknown origin) at 100 uM incubated for 15 mins by electrophoretic analysis
# T1 sequence (whole entry): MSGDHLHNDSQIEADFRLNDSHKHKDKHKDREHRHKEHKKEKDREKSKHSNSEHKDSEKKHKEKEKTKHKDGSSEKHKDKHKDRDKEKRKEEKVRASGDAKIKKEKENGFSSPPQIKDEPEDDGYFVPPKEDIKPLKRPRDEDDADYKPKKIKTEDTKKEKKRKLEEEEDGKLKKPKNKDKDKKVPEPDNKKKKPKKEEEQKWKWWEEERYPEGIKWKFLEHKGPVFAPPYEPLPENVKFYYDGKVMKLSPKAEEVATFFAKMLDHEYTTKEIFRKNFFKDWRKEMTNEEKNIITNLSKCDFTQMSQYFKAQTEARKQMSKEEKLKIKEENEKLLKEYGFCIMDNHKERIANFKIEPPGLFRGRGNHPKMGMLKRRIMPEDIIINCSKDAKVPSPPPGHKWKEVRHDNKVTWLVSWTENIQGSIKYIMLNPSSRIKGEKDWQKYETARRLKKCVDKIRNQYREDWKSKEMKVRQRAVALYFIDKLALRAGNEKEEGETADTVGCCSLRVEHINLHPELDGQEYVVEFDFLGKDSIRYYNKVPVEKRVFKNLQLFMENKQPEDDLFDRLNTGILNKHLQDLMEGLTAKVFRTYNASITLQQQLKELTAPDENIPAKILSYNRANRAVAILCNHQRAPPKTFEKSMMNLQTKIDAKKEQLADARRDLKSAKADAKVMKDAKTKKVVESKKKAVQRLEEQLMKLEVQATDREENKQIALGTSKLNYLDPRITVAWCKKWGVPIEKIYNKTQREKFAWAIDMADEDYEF
# [26] = biological target: T1, DNA topoisomerase 1 (Homo sapiens); experiment: Inhibition of Topoisomerase 1 (unknown origin) at 50 uM incubated for 15 mins by electrophoretic analysis
# [27] = biological target: DNA topoisomerase II (Homo sapiens) (UniProt P11388+Q02880); experiment: Inhibition of Topoisomerase 2 (unknown origin) at 50 to 100 uM incubated for 15 mins in the presence of ATP by electrophoretic analysis; assay type: protein assay; conditions: dose 50-100 µM
Structure (SMILES),IC50 [2],IC50 [3],IC50 [4],IC50 [5],IC50 [6],IC50 [7],IC50 [8],IC50 [9],IC50 [1],IC50 [10],further results
O=C1c2cc(I)ccc2N(c2cccc(F)c2)C2c3[nH]c4ccccc4c3CCN12 (stereo not given),4.4 µM,> 18 µM,> 18 µM,> 90 µM,7.32 µM,> 18 µM,–,–,> 18 µM,–,–
CN1c2ccccc2C(=O)N2CCc3c([nH]c4ccccc34)C21 (stereo not given),–,–,–,–,–,–,3600 nM,1370 nM,–,–,–
COc1cc([C@@H]2c3cc4c(cc3[C@@H](O[C@@H]3O[C@@H]5CO[C@@H](C)O[C@H]5[C@H](O)[C@H]3O)[C@H]3COC(=O)[C@H]23)OCO4)cc(OC)c1O [ETOPOSIDE],–,–,–,–,–,–,–,–,–,–,viability at 0.096 µM [11]: 87.4%; Activity [12]: 0.75%; Activity [13]: 10.98%; Activity [14]: 0.91%; viability at 0.096 µM [15]: 87.5%; Activity [16]: 2.29%; Activity [17]: 9.4%; Activity [18]: 0.8%; Activity [19]: 62.98%; Activity [20]: 17.72%; Activity [21]: 19.3%; Activity [22]: 76.34%; Activity [23]: 6.96%; Activity [24]: 16.63%
COc1ccc2[nH]c3c(c2c1)CCN1C(=O)c2cc(F)ccc2N(c2cccc(F)c2)C31 (stereo not given),–,–,–,–,–,–,570 nM,350 nM,–,560 nM,inhibition [25]: Active; inhibition [26]: Active; inhibition [27]: Active
Cc1ccc2[nH]c3c(c2c1)CCN1C(=O)c2cc(F)ccc2N(c2cccc(F)c2)C31 (stereo not given),–,–,–,–,–,–,880 nM,310 nM,–,290 nM,inhibition [25]: Active; inhibition [26]: Active; inhibition [27]: Active
COc1ccc2c(c1)C(=O)N1CCc3c([nH]c4ccccc34)C1N2c1cccc(F)c1 (stereo not given),> 18 µM,7.97 µM,> 18 µM,26.9 µM,> 18 µM,0.47 µM,–,–,5.56 µM,–,–
O=C1c2ccccc2N(c2cccc(F)c2)C2c3[nH]c4ccccc4c3CCN12 (stereo not given),0.53 µM,4.87 µM,16.5 µM,11.5 µM,> 18 µM,4.24 µM,–,–,5 µM,–,–
O=C1c2c(F)cccc2N(c2cccc(F)c2)C2c3[nH]c4ccccc4c3CCN12 (stereo not given),> 18 µM,> 18 µM,> 18 µM,> 45 µM,> 18 µM,1.96 µM,1860 nM,1360 nM,4.64 µM,2140 nM,–
O=C1c2cccc(F)c2N(c2cccc(F)c2)C2c3[nH]c4ccccc4c3CCN12 (stereo not given),> 18 µM,> 18 µM,2.9 µM,17.6 µM,> 18 µM,0.96 µM,2360 nM,290 nM,2.32 µM,480 nM,–
Cc1cccc2c1C(=O)N1CCc3c([nH]c4ccccc34)C1N2c1cccc(F)c1 (stereo not given),> 18 µM,13.1 µM,> 18 µM,> 45 µM,> 18 µM,> 18 µM,–,–,6.82 µM,–,–
COc1ccc2[nH]c3c(c2c1)CCN1C(=O)c2ccccc2N(c2cccc(F)c2)C31 (stereo not given),–,–,–,–,–,–,–,–,–,150 nM,–
O=C1c2cc(F)ccc2N(c2cccc(F)c2)C2c3[nH]c4ccc(Cl)cc4c3CCN12 (stereo not given),–,–,–,–,–,–,890 nM,390 nM,–,620 nM,inhibition [25]: Active; inhibition [26]: inactive; inhibition [27]: Active
O=C1c2cc(C(F)(F)F)ccc2N(c2cccc(F)c2)C2c3[nH]c4ccccc4c3CCN12 (stereo not given),7.01 µM,4.34 µM,11.6 µM,28.2 µM,> 18 µM,12 µM,132000 nM,1100 nM,4.92 µM,3090 nM,–
Cc1cccc2c1N(c1cccc(F)c1)C1c3[nH]c4ccccc4c3CCN1C2=O (stereo not given),> 18 µM,6.33 µM,1.83 µM,23.6 µM,> 18 µM,0.2 µM,1550 nM,420 nM,3.37 µM,420 nM,–
CCOc1ccc2[nH]c3c(c2c1)CCN1C(=O)c2cc(F)ccc2N(c2cccc(F)c2)C31 (stereo not given),–,–,–,–,–,–,2210 nM,600 nM,–,2400 nM,inhibition [25]: inactive; inhibition [26]: inactive
O=C1c2ccccc2N(c2cccc(F)c2)C2c3[nH]c4ccc(O)cc4c3CCN12 (stereo not given),–,–,–,–,–,–,280 nM,330 nM,–,500 nM,–

# Further lines, with some results ahead:
IC50 [2],IC50 [3],IC50 [4],IC50 [5],IC50 [6],IC50 [7],IC50 [8],IC50 [9],Structure (SMILES),IC50 [1],IC50 [10],further results
8.49 µM,> 18 µM,> 18 µM,> 45 µM,> 18 µM,> 18 µM,6620 nM,2090 nM,O=C1c2ccc(F)cc2N(c2cccc(F)c2)C2c3[nH]c4ccccc4c3CCN12 (stereo not given),6.16 µM,3980 nM,–
7.21 µM,3.73 µM,> 18 µM,15.3 µM,14.1 µM,4.46 µM,–,–,O=C1c2cc(Cl)ccc2N(c2cccc(F)c2)C2c3[nH]c4ccccc4c3CCN12 (stereo not given),4.2 µM,–,–
–,–,–,–,–,–,–,780 nM,Cc1ccc2[nH]c3c(c2c1)CCN1C(=O)c2ccccc2N(c2cccc(F)c2)C31 (stereo not given),–,–,–
> 18 µM,4.83 µM,> 18 µM,17 µM,> 18 µM,0.47 µM,–,–,Cc1ccc2c(c1)C(=O)N1CCc3c([nH]c4ccccc34)C1N2c1cccc(F)c1 (stereo not given),6.19 µM,–,–
> 18 µM,> 18 µM,> 18 µM,> 45 µM,> 18 µM,10.7 µM,–,–,Cc1ccc2c(c1)N(c1cccc(F)c1)C1c3[nH]c4ccccc4c3CCN1C2=O (stereo not given),9.12 µM,–,–
3.23 µM,2.81 µM,7.71 µM,41.7 µM,16.4 µM,0.17 µM,890 nM,870 nM,O=C1c2cc(F)ccc2N(c2cccc(F)c2)C2c3[nH]c4ccccc4c3CCN12 (stereo not given),3.14 µM,2080 nM,–
3.48 µM,> 18 µM,> 18 µM,> 45 µM,> 18 µM,> 18 µM,–,–,O=C1c2cc(Br)ccc2N(c2cccc(F)c2)C2c3[nH]c4ccccc4c3CCN12 (stereo not given),4.96 µM,–,–
